The NIST ThermoML archive (doi:10.1016/j.jct.2011.01.013)

Test: mn = molality of the nth substance listed, in mol/kg
Conditions: 298.15 K, 101 kPa, Liquid; for viscosity: Capillary tube (Ostwald / Ubbelohde) method; for speed of sound: Sing-around technique in a fixed-path interferometer; for mass density: Vibrating tube method

CCCCCCCC[n+]1ccn(C)c1.[Cl-] [1-methyl-3-octylimidazolium chloride] + O
Conditions	mass density [kg/m3]	speed of sound [m/s]	viscosity [mPa·s]
m1 = 0.0074	–	–	0.8986
m1 = 0.0127	997.14	1499.2	–
m1 = 0.01484	–	–	0.9052
m1 = 0.017	997.17	1500	–
m1 = 0.02425	–	–	0.9131
m1 = 0.0272	997.24	1502	–
m1 = 0.039	997.32	1504.4	–
m1 = 0.04255	–	–	0.9281
m1 = 0.0555	997.43	1507.5	–
m1 = 0.05607	–	–	0.9387
m1 = 0.06607	–	–	0.946
m1 = 0.0693	997.52	1510.1	–
m1 = 0.07893	–	–	0.956
m1 = 0.0892	997.65	1513.8	–
m1 = 0.0928	–	–	0.968
m1 = 0.1002	997.72	1515.7	–
m1 = 0.1061	–	–	0.9779
m1 = 0.1179	997.83	1518.5	–
m1 = 0.1353	997.94	1521.5	–
m1 = 0.1679	998.14	1526.8	–
m1 = 0.183	998.23	1529.5	–
m1 = 0.1948	998.3	1531.3	–

CCCCCCCCOS(=O)(=O)[O-].CCCCn1cc[n+](C)c1 [1-butyl-3-methylimidazolium octyl sulfate] + O
Conditions	mass density [kg/m3]	speed of sound [m/s]	viscosity [mPa·s]
m1 = 0.008	997.23	1498.5	–
m1 = 0.00921	–	–	0.9054
m1 = 0.0148	997.38	1500.1	–
m1 = 0.01899	–	–	0.9173
m1 = 0.0215	997.53	1501.6	–
m1 = 0.02803	–	–	0.9278
m1 = 0.0301	997.72	1503.6	–
m1 = 0.035	997.83	1504.7	–
m1 = 0.03646	–	–	0.9388
m1 = 0.0423	997.99	1506.2	–
m1 = 0.04596	–	–	0.9507
m1 = 0.0492	998.14	1506.9	–
m1 = 0.05551	–	–	0.9615
m1 = 0.06482	–	–	0.9748
m1 = 0.0668	998.52	1507.5	–
m1 = 0.07522	–	–	0.9873
m1 = 0.08499	–	–	0.9986
m1 = 0.0888	998.99	1508.1	–
m1 = 0.0981	–	–	1.015
m1 = 0.1542	1000.35	1509.5	–
m1 = 0.2466	1002.19	1511.6	–
m1 = 0.3369	1003.92	1513.9	–

CCCCn1cc[n+](C)c1.F[B-](F)(F)F [1-butyl-3-methylimidazolium tetrafluoroborate] + O
Conditions	mass density [kg/m3]	speed of sound [m/s]	viscosity [mPa·s]
m1 = 0.00382	–	–	0.8922
m1 = 0.01067	–	–	0.8943
m1 = 0.0151	997.61	1497.7	–
m1 = 0.02196	–	–	0.8986
m1 = 0.03489	–	–	0.9024
m1 = 0.0355	998.36	1499.1	–
m1 = 0.04696	–	–	0.9053
m1 = 0.05635	–	–	0.9095
m1 = 0.0662	–	–	0.9133
m1 = 0.07543	–	–	0.9162
m1 = 0.0764	999.85	1502	–
m1 = 0.08767	–	–	0.9198
m1 = 0.09802	–	–	0.9239
m1 = 0.1052	1000.89	1504	–
m1 = 0.1284	1001.72	1505.5	–
m1 = 0.1538	1002.64	1507.3	–
m1 = 0.1803	1003.58	1509.1	–
m1 = 0.2059	1004.49	1510.9	–
m1 = 0.2269	1005.22	1512.3	–
m1 = 0.2505	1006.06	1513.9	–

CCCCn1cc[n+](C)c1.[Cl-] [1-butyl-3-methylimidazolium chloride] + O
Conditions	mass density [kg/m3]	speed of sound [m/s]	viscosity [mPa·s]
m1 = 0.0123	997.21	1498.3	–
m1 = 0.01554	–	–	0.8981
m1 = 0.01952	–	–	0.9005
m1 = 0.02	997.31	1499.3	–
m1 = 0.0252	–	–	0.9024
m1 = 0.0279	997.41	1500.3	–
m1 = 0.0349	997.5	1501.2	–
m1 = 0.03495	–	–	0.9062
m1 = 0.0404	997.57	1501.9	–
m1 = 0.04454	–	–	0.9101
m1 = 0.05402	–	–	0.9143
m1 = 0.0624	997.85	1504.8	–
m1 = 0.06772	–	–	0.9197
m1 = 0.08128	–	–	0.9258
m1 = 0.09508	–	–	0.9323
m1 = 0.107	998.41	1510.6	–
m1 = 0.1132	–	–	0.9412
m1 = 0.1175	998.54	1512	–
m1 = 0.1296	998.69	1513.5	–
m1 = 0.1521	998.97	1516.5	–
m1 = 0.1677	999.16	1518.6	–
m1 = 0.1852	999.38	1520.9	–
m1 = 0.2113	999.7	1524.3	–
m1 = 0.236	1000.01	1527.6	–
m1 = 0.2591	1000.29	1530.7	–
m1 = 0.2718	1000.45	1532.4	–

CCCCCCCC[n+]1ccn(C)c1.F[B-](F)(F)F [1-methyl-3-octylimidazolium tetrafluoroborate] + O
Conditions	mass density [kg/m3]	speed of sound [m/s]	viscosity [mPa·s]
m1 = 0.00225	–	–	0.8929
m1 = 0.0045	997.19	1497.4	–
m1 = 0.0058	997.23	1497.5	–
m1 = 0.0077	997.29	1497.8	–
m1 = 0.00773	–	–	0.8974
m1 = 0.01093	–	–	0.8997
m1 = 0.0112	997.4	1498.3	–
m1 = 0.01518	–	–	0.9029
m1 = 0.017	997.58	1499	–
m1 = 0.01948	–	–	0.9059
m1 = 0.0196	997.66	1499.4	–
m1 = 0.0235	997.78	1499.9	–
m1 = 0.02476	–	–	0.9094
m1 = 0.0264	997.87	1500.3	–
m1 = 0.0311	–	–	0.914
m1 = 0.0369	998.19	1501.7	–
m1 = 0.03923	–	–	0.9201
m1 = 0.0428	998.37	1502.5	–
m1 = 0.0454	998.45	1502.9	–
m1 = 0.04705	–	–	0.9255

CCCCn1cc[n+](C)c1.COS(=O)(=O)[O-] [1-butyl-3-methylimidazolium methyl sulfate] + O
Conditions	mass density [kg/m3]	speed of sound [m/s]	viscosity [mPa·s]
m1 = 0.00791	–	–	0.8954
m1 = 0.0096	997.41	1498	–
m1 = 0.01626	–	–	0.8999
m1 = 0.02449	–	–	0.9046
m1 = 0.0289	998.13	1500.5	–
m1 = 0.0329	–	–	0.9095
m1 = 0.0411	998.59	1502	–
m1 = 0.04142	–	–	0.9133
m1 = 0.0522	–	–	0.9182
m1 = 0.0584	999.23	1504.2	–
m1 = 0.06083	–	–	0.9236
m1 = 0.07206	–	–	0.9287
m1 = 0.0828	1000.11	1507.2	–
m1 = 0.08297	–	–	0.9354
m1 = 0.09627	–	–	0.9428
m1 = 0.1188	1001.49	1512	–
m1 = 0.1481	1002.58	1515.7	–
m1 = 0.1736	1003.51	1519	–
m1 = 0.2021	1004.58	1522.6	–
m1 = 0.2252	1005.44	1525.6	–
